Starred links: 1 amine or outer side, 2 acyl side, 3 side chain; linkers in the order of their positions; H or OH if unused. Non-standard residues stand in square brackets, D forms with d. Residues, ends and D or L forms follow the SMILES beside them. Groups on a side chain read outwards from the residue. *: point of attachment. C18 diacid = O=C(O)CCCCCCCCCCCCCCCCC(=O)*; γGlu = O=C(O)[C@H](CCC(=O)[*:2])N[*:1]; PEG2 = NCCOCCOCCC(=O)O; Aib = CC(C)(N)C(=O)O

T1 sequence (P43220 24-463): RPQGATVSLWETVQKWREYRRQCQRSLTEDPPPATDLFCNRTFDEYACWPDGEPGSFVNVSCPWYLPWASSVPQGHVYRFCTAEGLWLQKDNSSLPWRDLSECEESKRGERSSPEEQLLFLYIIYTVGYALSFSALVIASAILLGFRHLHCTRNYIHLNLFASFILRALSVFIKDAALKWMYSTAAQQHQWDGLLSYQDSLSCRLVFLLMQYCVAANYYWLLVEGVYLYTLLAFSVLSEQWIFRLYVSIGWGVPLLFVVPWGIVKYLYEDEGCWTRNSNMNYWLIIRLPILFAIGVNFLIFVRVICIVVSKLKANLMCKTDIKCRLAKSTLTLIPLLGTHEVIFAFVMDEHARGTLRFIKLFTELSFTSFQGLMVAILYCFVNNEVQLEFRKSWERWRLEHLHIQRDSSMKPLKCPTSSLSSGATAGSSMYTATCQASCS

This test addresses T1, human GLP-1R (Homo sapiens, UniProt P43220).
T1 construct: expressed in transfected cells
Put plainly: In vitro activity on GLP-1R, CRE-luciferase HEK-293 cells. The following applies: ratio of EC50 GLP-1R to EC50 GCGR. The format is cell-based. As for the experimental part: 5000 of HEK-293 cells, which are used in CRE-luciferase system and express human GCGR or GLP-1R stably, were inoculated into 384 well plates according to […] DMEM/10% FBS media/well. […] After incubation, […] of luciferase reagent was added directly to each plate and mixed gently for 2 minutes. The plates were placed into an Elmer Perkin plate reader for reading. Concentration curve of the compound was made by drawing software Prism 5, and the EC50 value was calculated.
With `CSCC[C@H](NC(=O)[C@H](CC(C)C)NC(=O)[C@H](Cc1c[nH]c2ccccc12)NC(=O)[C@H](CCC(N)=O)NC(=O)[C@@H](NC(=O)[C@H](Cc1ccccc1)NC(=O)[C@H](CC(=O)O)NC(=O)[C@H](CCC(N)=O)NC(=O)[C@H](C)NC(=O)[C@H](CCCNC(=N)N)NC(=O)[C@H](CCCCNC(=O)CCOCCOCCNC(=O)CCOCCOCCNC(=O)CCCCCCCCCCCCCCCCC(=O)O)NC(=O)C(C)(C)NC(=O)[C@H](CC(=O)O)NC(=O)[C@H](CC(C)C)NC(=O)[C@H](Cc1ccc(O)cc1)NC(=O)[C@H](CCCCN)NC(=O)[C@H](CO)NC(=O)[C@H](Cc1ccc(O)cc1)NC(=O)[C@H](CC(=O)O)NC(=O)[C@H](CO)NC(=O)[C@@H](NC(=O)[C@H](Cc1ccccc1)NC(=O)[C@@H](NC(=O)CNC(=O)[C@H](CCC(N)=O)NC(=O)[C@@H](CO)NC(=O)[C@@H](N)Cc1c[nH]cn1)[C@@H](C)O)[C@@H](C)O)C(C)C)C(=O)N[C@@H](CC(N)=O)C(=O)N[C@H](C(=O)NCC(=O)NCC(=O)N1CCC[C@H]1C(=O)N[C@@H](CO)C(=O)N[C@@H](CO)C(=O)NCC(=O)N[C@@H](C)C(=O)N1CCC[C@H]1C(=O)N1CCC[C@H]1C(=O)N1CCC[C@H]1C(=O)N[C@@H](CO)C(N)=O)[C@@H](C)O` [Compound 12] (H-H[dS]QGTFTSDYSKYLD[Aib]K([PEG2-PEG2-C18 diacid])RAQDFVQWLMNTGGPSSGAPPPS-NH2; N-terminus assumed), the GLP-1R/GCGR is 2.1.
With `CCCCCCCCCCCCCCCC(=O)N[C@@H](CCC(=O)NCCOCCOCCC(=O)NCCOCCOCCC(=O)NCCCC[C@H](NC(=O)[C@H](CC(=O)O)NC(=O)[C@H](CC(C)C)NC(=O)[C@H](Cc1ccc(O)cc1)NC(=O)[C@H](CCCCN)NC(=O)[C@H](CO)NC(=O)[C@H](Cc1ccc(O)cc1)NC(=O)[C@H](CC(=O)O)NC(=O)[C@H](CO)NC(=O)[C@@H](NC(=O)[C@H](Cc1ccccc1)NC(=O)[C@@H](NC(=O)CNC(=O)[C@H](CCC(N)=O)NC(=O)[C@@H](CO)NC(=O)[C@@H](N)Cc1c[nH]cn1)[C@@H](C)O)[C@@H](C)O)C(=O)N[C@@H](CCCNC(=N)N)C(=O)N[C@@H](CCCNC(=N)N)C(=O)N[C@@H](C)C(=O)N[C@@H](CCC(N)=O)C(=O)N[C@@H](CC(=O)O)C(=O)N[C@@H](Cc1ccccc1)C(=O)N[C@H](C(=O)N[C@@H](CCC(N)=O)C(=O)N[C@@H](Cc1c[nH]c2ccccc12)C(=O)N[C@@H](CC(C)C)C(=O)N[C@@H](CCSC)C(=O)N[C@@H](CC(N)=O)C(=O)N[C@H](C(=O)NCC(=O)NCC(=O)N1CCC[C@H]1C(=O)N[C@@H](CO)C(=O)N[C@@H](CO)C(=O)NCC(=O)N[C@@H](C)C(=O)N1CCC[C@H]1C(=O)N1CCC[C@H]1C(=O)N1CCC[C@H]1C(=O)N[C@@H](CO)C(N)=O)[C@@H](C)O)C(C)C)C(=O)O` [Compound 10], the GLP-1R/GCGR was 3.3.
For `CC(C)C[C@H](NC(=O)[C@H](CC(C)C)NC(=O)[C@H](Cc1c[nH]c2ccccc12)NC(=O)[C@H](CCC(=O)O)NC(=O)[C@@H](NC(=O)[C@H](Cc1ccccc1)NC(=O)[C@H](CC(=O)O)NC(=O)[C@H](Cc1c[nH]cn1)NC(=O)[C@H](C)NC(=O)[C@H](C)NC(=O)[C@H](CCCCNC(=O)CCOCCOCCNC(=O)CCOCCOCCNC(=O)CC[C@H](NC(=O)CCCCCCCCCCCCCCCCC(=O)O)C(=O)O)NC(=O)[C@H](CO)NC(=O)[C@H](CC(=O)O)NC(=O)[C@H](CC(C)C)NC(=O)[C@H](Cc1ccc(O)cc1)NC(=O)[C@H](CCCCN)NC(=O)[C@H](CO)NC(=O)[C@H](Cc1ccc(O)cc1)NC(=O)[C@H](CC(=O)O)NC(=O)[C@H](CO)NC(=O)[C@@H](NC(=O)[C@H](Cc1ccccc1)NC(=O)[C@@H](NC(=O)CNC(=O)[C@H](CCC(N)=O)NC(=O)[C@@H](CO)NC(=O)[C@@H](N)Cc1c[nH]cn1)[C@@H](C)O)[C@@H](C)O)C(C)C)C(=O)N[C@@H](CCCNC(=N)N)C(=O)N[C@@H](C)C(N)=O` [Compound 1], the GLP-1R/GCGR is 0.4.
On to `CSCC[C@H](NC(=O)[C@H](CC(C)C)NC(=O)[C@H](Cc1c[nH]c2ccccc12)NC(=O)[C@H](CCC(N)=O)NC(=O)[C@@H](NC(=O)[C@H](Cc1ccccc1)NC(=O)[C@H](CC(=O)O)NC(=O)[C@H](CCC(N)=O)NC(=O)[C@H](C)NC(=O)[C@H](CCCNC(=N)N)NC(=O)[C@H](CCCNC(=N)N)NC(=O)C(C)(C)NC(=O)[C@H](CC(=O)O)NC(=O)[C@H](CC(C)C)NC(=O)[C@H](CCCCN)NC(=O)[C@H](CCCCNC(=O)CCOCCOCCNC(=O)CCOCCOCCNC(=O)CCCCCCCCCCCCCCCCC(=O)O)NC(=O)[C@H](CO)NC(=O)[C@H](Cc1ccc(O)cc1)NC(=O)[C@H](CC(=O)O)NC(=O)[C@H](CO)NC(=O)[C@@H](NC(=O)[C@H](Cc1ccccc1)NC(=O)[C@@H](NC(=O)CNC(=O)[C@H](CCC(N)=O)NC(=O)[C@@H](CO)NC(=O)[C@@H](N)Cc1c[nH]cn1)[C@@H](C)O)[C@@H](C)O)C(C)C)C(=O)N[C@@H](CC(N)=O)C(=O)N[C@H](C(=O)NCC(=O)NCC(=O)N1CCC[C@H]1C(=O)N[C@@H](CO)C(=O)N[C@@H](CO)C(=O)NCC(=O)N[C@@H](C)C(=O)N1CCC[C@H]1C(=O)N1CCC[C@H]1C(=O)N1CCC[C@H]1C(=O)N[C@@H](CO)C(N)=O)[C@@H](C)O` [Compound 16], for which the GLP-1R/GCGR is 3.
Take `CC[C@H](C)[C@H](NC(=O)[C@H](Cc1ccccc1)NC(=O)[C@H](CCC(=O)O)NC(=O)[C@H](CCCCNC(=O)CCOCCOCCNC(=O)CCOCCOCCNC(=O)CC[C@H](NC(=O)CCCCCCCCCCCCCCCCC(=O)O)C(=O)O)NC(=O)[C@H](C)NC(=O)[C@H](C)NC(=O)[C@H](CCCCN)NC(=O)[C@H](CCC(=O)O)NC(=O)[C@H](CC(=O)O)NC(=O)[C@H](CC(C)C)NC(=O)[C@H](Cc1ccc(O)cc1)NC(=O)[C@H](CCCCN)NC(=O)[C@H](CO)NC(=O)[C@H](Cc1ccc(O)cc1)NC(=O)[C@H](CC(=O)O)NC(=O)[C@H](CO)NC(=O)[C@@H](NC(=O)[C@H](Cc1ccccc1)NC(=O)[C@@H](NC(=O)CNC(=O)[C@H](CCC(N)=O)NC(=O)[C@@H](CO)NC(=O)[C@@H](N)Cc1c[nH]cn1)[C@@H](C)O)[C@@H](C)O)C(=O)N[C@@H](CCC(=O)O)C(=O)N[C@@H](Cc1c[nH]c2ccccc12)C(=O)N[C@@H](CC(C)C)C(=O)N[C@@H](CC(C)C)C(=O)N[C@@H](CCCNC(=N)N)C(=O)N[C@@H](C)C(N)=O` [Compound 2] (H-H[dS]QGTFTSDYSKYLDEKAAK([PEG2-PEG2-γGlu-C18 diacid])EFIEWLLRA-NH2): the GLP-1R/GCGR is listed as 0.1.
Regarding `CSCC[C@H](NC(=O)[C@H](CC(C)C)NC(=O)[C@H](Cc1c[nH]c2ccccc12)NC(=O)[C@H](CCC(N)=O)NC(=O)[C@@H](NC(=O)[C@H](Cc1ccccc1)NC(=O)[C@H](CC(=O)O)NC(=O)[C@H](CCC(N)=O)NC(=O)[C@H](C)NC(=O)[C@H](CCCNC(=N)N)NC(=O)[C@H](CCCCNC(=O)CCOCCOCCNC(=O)CCOCCOCCNC(=O)CC[C@H](NC(=O)CCCCCCCCCCCCCCCCC(=O)O)C(=O)O)NC(=O)C(C)(C)NC(=O)[C@H](CC(=O)O)NC(=O)[C@H](CC(C)C)NC(=O)[C@H](Cc1ccc(O)cc1)NC(=O)[C@H](CCCCN)NC(=O)[C@H](CO)NC(=O)[C@H](Cc1ccc(O)cc1)NC(=O)[C@H](CC(=O)O)NC(=O)[C@H](CO)NC(=O)[C@@H](NC(=O)[C@H](Cc1ccccc1)NC(=O)[C@@H](NC(=O)CNC(=O)[C@H](CCC(N)=O)NC(=O)[C@@H](CO)NC(=O)[C@@H](N)Cc1c[nH]cn1)[C@@H](C)O)[C@@H](C)O)C(C)C)C(=O)N[C@@H](CC(N)=O)C(=O)N[C@H](C(=O)NCC(=O)NCC(=O)N1CCC[C@H]1C(=O)N[C@@H](CO)C(=O)N[C@@H](CO)C(=O)NCC(=O)N[C@@H](C)C(=O)N1CCC[C@H]1C(=O)N1CCC[C@H]1C(=O)N1CCC[C@H]1C(=O)N[C@@H](CO)C(N)=O)[C@@H](C)O` [Compound 14], the GLP-1R/GCGR turned out to be 2.1.

The values are drawn from US10479819B2 (priority 2014, dated 2019).
